Experimental data published in US20240294572A1, “Antimicrobial Peptides” (priority 2021, published 2024).
Non-standard residues stand in square brackets, D forms with d. Residues, ends and D or L forms follow the SMILES beside them. *: point of attachment. Decanoyl = CCCCCCCCCC(=O)*

What was measured:
[1] = target: T1, Apolipoprotein A-IV (P06728) (Mus musculus, UniProt P06728); test: Mass spectrometry of mouse plasma proteins bound to bead-immobilized peptide; assay type: binding; conditions: intensity bound to L-form / D-form of C10-KR8
T1 construct: incubated with 5% mouse plasma; from tissue; host or cells: mouse plasma (5%)
T1 sequence (P06728 21-395): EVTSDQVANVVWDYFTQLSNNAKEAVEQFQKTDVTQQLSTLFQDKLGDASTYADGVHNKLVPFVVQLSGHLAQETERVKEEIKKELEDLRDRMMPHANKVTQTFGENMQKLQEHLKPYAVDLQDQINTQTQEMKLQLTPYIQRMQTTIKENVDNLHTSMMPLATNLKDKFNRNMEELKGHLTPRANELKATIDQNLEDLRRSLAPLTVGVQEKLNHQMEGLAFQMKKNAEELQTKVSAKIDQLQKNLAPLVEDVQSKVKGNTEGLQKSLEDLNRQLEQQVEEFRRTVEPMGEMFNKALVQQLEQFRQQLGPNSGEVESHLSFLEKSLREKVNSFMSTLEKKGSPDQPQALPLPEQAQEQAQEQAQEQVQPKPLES
Description: (§1) Dynabeads M-370 amine (2×10^9 beads/mL, 50 μL; Thermo Fisher Scientific) were washed 3 times in sterile PBS (1 mL; GIBCO) and reacted with a bifunctional SM(PEG)4 cross-linker (5 mg/mL in DMSO) containing N-hydroxysuccinimide (NHS) ester and maleimide functional groups. A stable covalent bond between the amino group of beads and the NHS ester of the cross-linker was formed in PBS at pH 7.2 at room temperature for 24 hours with shaking at 80 rpm. The beads were then washed six times with PBS to remove nonreacted cross-linker. Next, peptide C10-KR8 (with a cysteine at the N-terminus) at 5 mg/mL was reacted with the free maleimide group in PBS for 24 hours at room temperature with shaking at 80 rpm. Another round of washing was conducted to remove the nonreacted peptides. Both the L-and D-forms of the peptide were coupled in the same manner. A portion of the beads without peptide coupling was saved as a control.
(§2) For serum binding experiments, the beads were resuspended in 500 μL of PBS; 200-μL aliquots of the coated and control dynabead were incubated with 5% mouse plasma for 18 hours at 37° C. After binding, the beads were washed six times with PBS to remove unbound proteins. Finally, the beads were suspended in 50 μL of PBS for mass spectrophotometric analysis to identify peptide-binding partners.
(§3) The samples were reduced by 10 mM dithiothreitol (DTT) and incubated for 30 minutes at 56° C. and back to room temperature. A final concentration of 50 mM iodoacetamide was added to alkylate free cysteines followed by further incubation for 20 min in the dark. Bound proteins were enzymatically digested by trypsin (4 μL of 0.5 μg/mL) overnight. A 60 […] portion was transferred to a new Eppendorf® tube and dried for 2 hours. The samples were then dissolved in 20 μL of 2% acetonitrile with 0.1% formic acid before being loaded to Q-tip columns (Pepclean, C18 spin column). Column was activated by pipetting in and out (4× times), 10 μL of 70% acetonitrile with 0.1% formic acid, and equilibrating with the same volume of 2% acetonitrile with 0.1% formic acid. Binding of the samples was done by mixing more than 10 × times, followed by washing in the same buffer (2% acetonitrile with 0.1% formic acid). The bound peptides were then eluted with 20 μL of 70% acetonitrile with 0.1% formic acid. Samples were subjected to LC-MS analysis after being suspended in the desired buffer.
(§4) Extracted peptides were resuspended in 2% acetonitrile (ACN) and 0.1% formic acid (FA) and loaded onto trap column Acclaim™ PepMap™ 100 75 μm×2 cm C18 LC Columns (Thermo Scientific) at a flow rate of 4 μL/minute. These were then separated with a Thermo RSLC UltiMate™ 3000 on a Thermo Easy-Spray PepMap™ M RSLC C18 75 μm×50 cm C-18 2 μm column (Thermo Scientific) with a step gradient of 4-25% solvent B (0.1% FA in 80% ACN) from 10 to 37 minutes and 25-45% solvent B for 37-46 minutes at 300 nL/min and 50° C. with a 70 minute total run time. Eluted peptides were analyzed by a Thermo Orbitrap Fusion™ Lumos™ Tribrid™ (Thermo Scientific) mass spectrometer in a data dependent acquisition mode. A survey full scan MS (from m/z 350-1800) was acquired in the orbitrap with a resolution of 120000. The AGC target for MS1 was set as 4×10^5 and the ion filling time set as 100 ms. The most intense ions with charge state 2-6 were isolated in 3 second cycle and fragmented using HCD fragmentation with 40% normalized collision energy and detected at a mass resolution of 30000 at 200 m/z. The AGC target for MS/MS was set as 5×10^4 and ion filling time set 60 ms dynamic exclusion was set for 30 seconds with a 10 ppm mass window. Protein identification was performed by searching MS/MS data against the Swiss-Prot mouse protein database. The search was set up for full tryptic peptides with a maximum of two missed cleavage sites. Acetylation of protein N-terminus and oxidized methionine were included as variable modifications, and carbamidomethylation of cysteine was set as fixed modification. […]

[2] = target: T2, Apolipoprotein C-III (P33622) (Mus musculus, UniProt P33622); test: as above; assay type: binding; conditions: intensity bound to L-form / D-form of C10-KR8
T2 construct: incubated with 5% mouse plasma; from tissue; host or cells: mouse plasma (5%)
T2 sequence (P33622 21-99): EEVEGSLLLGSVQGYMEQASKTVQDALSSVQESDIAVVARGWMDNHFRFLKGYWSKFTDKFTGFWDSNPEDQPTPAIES
Description: as §1, §2, §3, §4

S. aureus USA300 LAC = test: Catheter-associated murine biofilm model; assay type: in vivo, mice; conditions: single dose 15 mg/kg (250 μg) into and around catheter, day 3
Description: Peptide potency was evaluated in the catheter model as described (Wang, et al. (2014) ACS Chem. Biol., 9:1997-2002; Heim, et al. (2014) Methods Mol. Biol., 1106:183-191). On the day of infection, mice were anesthetized using ketamine/xylazine (100/10 mg/kg). A small incision was made on the left flank region of the mouse, and using small blunt spatula, a pouch was made for catheter insertion. A sterile catheter with a length of 1 cm was inserted into the pouch aseptically. The wound was sealed using wound closure VetBond™ glue. Bacterial inoculum (20 μL with 10^3 CFU) was injected into the lumen of the catheter. Two hours post infection, the peptide was injected at 15 mg/kg (50 μL at each of the five sites in and around the catheter). Mice were allowed full recovery from anesthesia in an oxygen-enriched chamber. Three days after infection, untreated and treated animal groups were CO2 euthanized and the tissue around the catheter was harvested along with the catheter. A bacterial uninfected catheter group was included as a negative control. All the catheters were sonicated at 37 kHz for 15 minutes to release the bacteria in biofilms, and the tissues were homogenized. […] Degree of significance was represented as *p<0.05**p<0.01, ***p<0.001, and NS means no significance (determined by nonparametric, unpaired, Mann-Whitney test).

CCCCCCCCCC(=O)N[C@@H](CCCCN)C(=O)N[C@@H](CCCNC(=N)N)C(=O)N[C@H](C(=O)N[C@@H](Cc1c[nH]c2ccccc12)C(=O)N[C@@H](CCC(N)=O)C(=O)N[C@@H](CCCNC(=N)N)C(=O)N[C@H](C(=O)N[C@@H](CCCCN)C(N)=O)[C@@H](C)CC)[C@@H](C)CC [Peptide C10-KR8] (Decanoyl-KRIWQRIK-NH2)
L/D Ratio, Apolipoprotein A-IV [1]: 2.89
L/D Ratio, Apolipoprotein C-III [2]: 3.62

CCCCCCCCCC(=O)N[C@H](CCCCN)C(=O)N[C@H](CCCNC(=N)N)C(=O)N[C@@H](C(=O)N[C@H](Cc1c[nH]c2ccccc12)C(=O)N[C@H](CCC(N)=O)C(=O)N[C@H](CCCNC(=N)N)C(=O)N[C@@H](C(=O)N[C@H](CCCCN)C(N)=O)[C@H](C)CC)[C@H](C)CC [Peptide C10-KR8d] (Decanoyl-[dK][dR][dI][dW][dQ][dR][dI][dK]-NH2)
bacterial burden (CFU) on catheter and surrounding tissue (S. aureus USA300 LAC): clear decrease in bacterial burden
